For 34 compounds, IC50 results are on record in US20240109893A1, “PREPARATION AND APPLICATION METHOD OF HETEROCYCLIC COMPOUNDS AS KRAS INHIBITOR” (SHANGHAI KECHOW PHARMA, INC., priority 2020, published 2024).

Molecules are shown by their SMILES.

One assay concerns H358 cells. The experiment in a line: Cell activity experiment: activity test of H358 cells (MTT, 5 days). The assay is classed as cell-based. The following applies: 5 days incubation, absorbance 492 nm. The procedure, abridged:
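H358 cells seeded 90 μL at 55555 cells/mL, grown 24 h, then exposed to 3-fold serial compound dilutions (final top 10000 nM, 0.5% DMSO) in triplicate for 5 days at 37° C., 5% CO2. Viability by MTT (4 h), formazan dissolved in DMSO, absorbance at 492 nm.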
As a reminder, the IC50 is the point on the concentration scale where inhibition reaches its midpoint. Read a low IC50 as greater potency. Compound `C=C(F)C(=O)N1CCN(c2nc(OC[C@@]34CCCN3C[C@H](F)C4)nc3c(OC4CC4)c(-c4cccc5c4CC4CC54)c(Cl)cc23)C[C@@H]1CC#N` (single isomer, unassigned) [Example 919] yielded a half-inhibitory concentration (IC50) of 1.68 µM.

Regarding `C=C(F)C(=O)N1CCN(c2nc(OCC3(CN4CCCC4)CC3)nc3c(F)c(-c4cccc5c4C4CC4C5)ccc23)C[C@@H]1CC#N` (single isomer, unassigned) [Example 871], half-maximal inhibition (IC50) required 0.009 µM.

Regarding `C=C(F)C(=O)N1CCN(c2nc(OC[C@@H]3CCCN3C)nc3c(F)c(-c4cccc5c4CC4CC54)ccc23)C[C@@H]1CC#N` (single isomer, unassigned) [Example 884], the IC50 stood at 1.26 µM.

The same assay, now with this note: Homo sapiens, NCI-H358, 120 h, 5 days incubation, absorbance 492 nm.
`C=C(F)C(=O)N1CCN(c2nc(OC[C@@H]3CCCN3C)nc3c(F)c(-c4cccc5c4[C@@H]4C[C@@H]4C5)ncc23)C[C@@H]1CC#N` [Example 59, 2-((S)-4-(8-fluoro-2-(((S)-1-methylpyrrolidin-2-yl)methoxy)-7-((1aR,6aR)-1,1a,6,6a-tetrahydrocyclopropa[a]inden-2-yl)pyridino[4,3-d]pyrimidin-4-yl)-1-(2-fluoroacryloyl)piperazin-2-yl)acetonitrile] returned a 50% inhibitory concentration (IC50) of 0.14 µM. That is a sub-micromolar value.

Turning to `C=C(F)C(=O)N1CCN(c2nc(OCC34CCCN3CCC4)nc3nc(-c4cccc5cccc(Cl)c45)ccc23)C[C@@H]1CC#N` [Example 259, (S)-2-(4-(7-(8-chloronaphthalen-1-yl)-2-((tetrahydro-1H-pyrrolizin-7a(5H)-yl)methoxy)pyridino[2,3-d]pyrimidin-4-yl)-1-(2-fluoroacryloyl)piperazin-2-yl)acetonitrile], 0.031 µM corresponded to half-maximal inhibition (IC50).

In the case of `C=C(F)C(=O)N1CCN(c2nc(OC[C@@H]3CCCN3C)nc3c(F)c(-c4cncc5cccc(Cl)c45)ccc23)C[C@@H]1CC#N` [Example 159], the half-maximal inhibitory concentration (IC50) was found to be 0.018 µM.

Take `C=C(F)C(=O)N1CCN(c2nc(OCC34CCCN3CCC4)nc3c(F)c(-c4cccc5c4[C@H]4C[C@H]4C5)ncc23)C[C@@H]1CC#N` [Example 64, 2-((S)-4-(8-fluoro-2-((tetrahydro-1H-pyrrolizin-7a(5H)-yl)methoxy)-7-((1aS,6aS)-1,1a,6,6a-tetrahydrocyclopropa[a]inden-2-yl)pyridino[4,3-d]pyrimidin-4-yl)-1-(2-fluoroacryloyl)piperazin-2-yl)acetonitrile]: the 50% inhibitory concentration (IC50) stood at 0.01 µM. Compared with the last compound, the IC50 is about 1.8-fold lower.

The compound `C=CC(=O)N1CCN(c2nc(OC[C@@H]3CCCN3C)nc3c(F)c(-c4cccc5c4CCCC5)c(F)cc23)C[C@@H]1CC#N` [Example 429] came in with an IC50 of 0.015 µM.

On to `C=CC(=O)N1CC[C@@H]2[C@H]1CN2c1nc(OC[C@@H]2CCCN2C)nc2cc(-c3cccc4ccc(F)c(Cl)c34)ccc12` [Example 101, 1-((1R,5R)-6-(7-(8-chloro-7-fluoronaphthalen-1-yl)-2-(((S)-1-methylpyrrolidin-2-yl)methoxy)quinazolin-4-yl)-2,6-diazabicyclo[3.2.0]hept-2-yl)prop-2-en-1-one], for which the IC50 amounted to 0.005 µM.

Take `C=CC(=O)N1CCN(c2nc(OC[C@@H]3C[C@@H](F)CN3C)nc3cc(-c4cccc5cccc(Cl)c45)c(Cl)cc23)C[C@@H]1CC#N` [Example 468]: the half-inhibitory concentration (IC50) amounted to 0.075 µM.

`C=C(F)C(=O)N1CCN(c2nc(OC[C@@H]3CCCN3C)nc3c(F)c(-c4ccc(F)c5c4CCCC5)ncc23)C[C@@H]1CC#N` [Example 18] returned an IC50 of 0.1 µM.

Turning to `C=C(F)C(=O)N1CCN(c2nc(OC[C@@H]3C[C@@H](F)CN3C)nc3cc(-c4cccc5ccc(F)c(Cl)c45)ccc23)C[C@@H]1CC#N` [Example 96], the midpoint of inhibition, the IC50, lay at 0.025 µM.

`C=CC(=O)N1CCN(c2nc(OCC34CCCN3CCC4)nc3c(F)c(-c4ccc(F)c5c4CCCC5)ncc23)C[C@@H]1CC#N` [Example 21] returned an IC50 of 0.007 µM.

`C=CC(=O)N1CCN(c2nc(OC[C@@H]3CCCN3C)nc3c(F)c(N4CCCc5cc(F)ccc54)ccc23)C[C@@H]1CC#N` [Example 616] gave an IC50 of 0.473 µM.

`C=C(F)C(=O)N1CC[C@@H]2[C@H]1CN2c1nc(OCC23CCCN2CCC3)nc2c(F)c(-c3cccc4c3CCCC4)ncc12` [Example 14, 2-fluoro-1-((1R,5R)-6-(8-fluoro-2-((tetrahydro-1H-pyrrolizin-7a(5H)-yl)methoxy)-7-(5,6,7,8-tetrahydronaphthalen-1-yl)pyridino[4,3-d]pyrimidin-4-yl)-2,6-diazabicyclo[3.2.0]hept-2-yl)prop-2-en-1-one]: the half-inhibitory concentration (IC50) was found to be 0.03 µM.

`C=CC(=O)N1CCN(c2nc(OC[C@@H]3C[C@@H](F)CN3C)nc3cc(-c4cccc5c4CCCC5)ccc23)C[C@@H]1CC#N` [Example 112]: the IC50 stood at 0.038 µM.

Regarding `C=CC(=O)N1CC[C@@H]2[C@H]1CN2c1nc(OC[C@@H]2C[C@@H](F)CN2C)nc2c(F)c(-c3ccc(F)c4c3CCCC4)ncc12` [Example 27], the IC50 turned out to be 0.015 µM.

Compound `C=C(F)C(=O)N1CCN(c2nc(OC[C@@H]3C[C@@H](F)CN3C)nc3cc(-c4cccc5c4CCCC5)ccc23)C[C@@H]1CC#N` [Example 113] returned an IC50 of 0.15 µM.

`C=CC(=O)N1CCN(c2nc(OC[C@@H]3C[C@@H](F)CN3C)nc3c(F)c(-c4cccc5cccc(Cl)c45)ccc23)C[C@@H]1CC#N` [Example 361] had an IC50 of 0.005 µM.

The compound `C=CC(=O)N1CCN(c2nc(OCC34CCCN3CCC4)nc3c(F)c(-c4cccc5ccc(F)c(Cl)c45)ccc23)C[C@@H]1CC#N` [Example 365, (S)-2-(1-acryloyl-4-(7-(8-chloro-7-fluoronaphthalen-1-yl)-8-fluoro-2-((tetrahydro-1H-pyrrolizin-7a(5H)-yl)methoxy)quinazolin-4-yl)piperazin-2-yl)acetonitrile] displayed an IC50 of 0.002 µM. Against the preceding compound, the IC50 is about 2.5-fold lower.

Consider `C=C(F)C(=O)N1CCN(c2nc(OCC34CCCN3CCC4)nc3cc(-c4cncc5cccc(Cl)c45)ccc23)C[C@@H]1CC#N` [Example 131, (S)-2-(4-(7-(5-chloroisoquinolin-4-yl)-2-((tetrahydro-1H-pyrrolizin-7a(5H)-yl)methoxy)quinazolin-4-yl)-1-(2-fluoroacryloyl)piperazin-2-yl)acetonitrile], for which the concentration for half-maximal inhibition (IC50) turned out to be 0.016 µM. Against the preceding compound, the IC50 is about 8-fold higher.

`C=CC(=O)N1CCN(c2nc(OC[C@@H]3CCCN3C)nc3c(F)c(-c4cccc5ccc(F)c(Cl)c45)ccc23)C[C@@H]1CC#N` [Example 359, 2-((S)-1-acryloyl-4-(7-(8-chloro-7-fluoronaphthalen-1-yl)-8-fluoro-2-(((S)-1-methylpyrrolidin-2-yl)methoxy)quinazolin-4-yl)piperazin-2-yl)acetonitrile] had an IC50 of 0.003 µM. This IC50 is about 5.3-fold lower than that of the compound before.

`C=CC(=O)N1CCN(c2nc(OC[C@@H]3CCCN3C)nc3c(F)c(N4CCCc5cc(F)ccc54)c(Cl)cc23)CC1` [Example 615, (S)-1-(4-(6-chloro-8-fluoro-7-(6 fluoro-3,4-dihydroquinoline-1(2H)-yl)-2-((1-methylpyrrolidin-2-yl)methoxy)quinazolin-4-yl)piperazin-1-yl)prop-2-en-1-one] came in with an IC50 of 1.01 µM.

Consider `C=CC(=O)N1CCN(c2nc(OCC34CCCN3CCC4)nc3cc(-c4cccc5ccc(F)c(Cl)c45)ccc23)C[C@@H]1CC#N` [Example 97, (S)-2-(1-acryloyl-4-(7-(8-chloro-7-fluoronaphthalen-1-yl)-2-((tetrahydro-1H-pyrrolizin-7a(5H)-yl)methoxy)quinazolin-4-yl)piperazin-2-yl)acetonitrile], for which it took 0.00049 µM to reach half-maximal inhibition (IC50).

`C=C(F)C(=O)N1CCN(c2nc(OC[C@@H]3C[C@@H](F)CN3C)nc3cc(-c4cncc5cccc(Cl)c45)ccc23)C[C@@H]1CC#N` [Example 129]: half-maximal inhibition (IC50) required 0.05 µM. Against the preceding compound, the IC50 is about 100-fold higher.

The compound `C=C(F)C(=O)N1CCN(c2nc(OC[C@@H]3C[C@@H](F)CN3C)nc3c(F)c(-c4cncc5cccc(Cl)c45)ccc23)C[C@@H]1CC#N` [Example 161] returned an IC50 of 0.02 µM.

As to `C=C(F)C(=O)N1CCN(c2nc(OC[C@@H]3CCCN3C)nc3cc(-c4cccc5ccc(F)c(Cl)c45)ccc23)C[C@@H]1CC#N` [Example 94, 2-((S)-4-(7-(8-chloro-7-fluoronaphthalen-1-yl)-2-(((S)-1-methylpyrrolidin-2-yl)methoxy)quinazolin-4-yl)-1-(2-fluoroacryloyl)piperazin-2-yl)acetonitrile], it took 0.015 µM to reach half-maximal inhibition (IC50).

In the case of `C=C(F)C(=O)N1CCN(c2nc(OC[C@@]34CCCN3C[C@H](F)C4)nc3c(OC4CC4)c(-c4cccc5cccc(Cl)c45)c(Cl)cc23)C[C@@H]1CC#N` [Example 916], it took 0.037 µM to reach half-maximal inhibition (IC50). This IC50 lies about 2.5-fold higher than the previous one.

`C=CC(=O)N1CCN(c2nc(OCC34CCCN3CCC4)nc3cc(-c4cccc5c4CCCC5)c(Cl)cc23)C[C@@H]1CC#N` [Example 470] yielded an IC50 of 0.05 µM.

The compound `C=CC(=O)N1CCN(c2nc(OC[C@@H]3CCCN3C)nc3cc(-c4cncc5c4CCCC5)ccc23)C[C@@H]1CC#N` [Example 142] registered an IC50 of 0.02 µM.

`C=CC(=O)N1CCN(c2nc(OCC3(CN4CCCC4)CC3)nc3c(F)c(-c4cccc5cccc(Cl)c45)ccc23)C[C@@H]1CC#N` [Example 855, (S)-2-(1-acryloyl-4-(7-(8-chloronaphthalen-1-yl)-8-fluoro-2-((1-(pyrrolidin-1-ylmethyl)cyclopropyl)methoxy)quinazolin-4-yl)piperazin-2-yl)acetonitrile] had an IC50 of 0.0051 µM.

Compound `C=CC(=O)N1CCN(c2nc(OC[C@@H]3CCCN3C)nc3c(F)c(N4CCc5cc(F)ccc54)ccc23)CC1` [Example 617] registered an IC50 of 0.884 µM. This IC50 lies about 170-fold higher than the previous one.

`C=CC(=O)N1CCN(c2nc(OC[C@@H]3C[C@@H](F)CN3C)nc3cc(-c4cncc5cccc(Cl)c45)ccc23)C[C@@H]1CC#N` [Example 128, 2-((S)-1-acryloyl-4-(7-(5-chloroisoquinolin-4-yl)-2-((((2S,4R)-4-fluoro-1-methylpyrrolidin-2-yl)methoxy))quinazolin-4-yl)piperazin-2-yl)acetonitrile] gave an IC50 of 0.02 µM.

On to `C=CC(=O)N1CCN(c2nc(OC[C@@H]3CCCN3C)nc3cc(-c4cccc5c4C4CC4C5)ccc23)C[C@@H]1CC#N` (stereo partly shown) [Example 536], for which the IC50 is 0.03 µM.
